Results on 23 compounds are retold here after US12558428B2, “Heterobifunctional compounds and their use in treating disease” (Halda Therapeutics OpCo, Inc., priority 2024, dated 2026).

Assay type in all cases: cell-based
Experiment [1] concerns T-Rex 293 cells lacking increased expression of estrogen receptor alpha protein. Kind of experiment: Cellular growth inhibition assay, T-Rex 293 cells, (−) doxycycline. To be noted: T-REx-293, 72 h, 72 hours. Summed up:
(§1)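 Growth of a doxycycline-inducible ERα T-Rex 293 clone, induced or not with 3 ng/mL doxycycline, was followed for 72 h with test compound in hormone-depleted medium. CellTiter-Glo luminescence gave GI50.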

Experiment [2] has as its system T-Rex 293 cells having increased expression of estrogen receptor alpha protein. Kind of experiment: Cellular growth inhibition assay, T-Rex 293 cells, (+) doxycycline. The conditions noted are these: T-REx-293, 72 h, 72 hours. Summed up:
as §1

The subject of experiment [3] is MCF7 cells (ATCC #HTB-22). Kind of experiment: Cellular growth inhibition assay, MCF7 cells purchased from ATCC. The conditions noted are these: Homo sapiens, MCF7, 144 h, Table 8-A; MCF7 cells purchased from ATCC; six days; CellTiter-Glo; read-out: GI50. The gist of the method:
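GI50 values come from a four-parameter fit of CellTiter-Glo 2.0 luminescence after six days of compound exposure at 37° C. Seeding density depended on the source: 225 cells/well for ECACC MCF7, 1,500 for ATCC. Medium was RPMI 1640 with 10% FBS and 0.2 U/ml insulin.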
A general note: Cellular ATP, detected with luciferase, serves as a proxy for viable cell number.

The mark [4] stands for this setting: Table 7-A, T-Rex 293 cells without doxycycline (lacking increased ERα expression), CellTiter-Glo, read-out: (−) Dox GI50.
Where [5] appears, read: Table 7-A, T-Rex 293 cells with doxycycline (increased ERα expression), CellTiter-Glo, read-out: (+) Dox GI50.
Setting [6] is: T-Rex 293 cells without doxycycline, CellTiter-Glo 2.0, read-out: (−) Dox TRex ERa (GI50).
Setting [7] is: T-Rex 293 cells with doxycycline-induced ERα expression, CellTiter-Glo 2.0, read-out: (+) Dox TRex ERa (GI50).

As a reminder, the GI50 is the concentration that inhibits growth by half.

Each structure is given as a SMILES string. Like-named read-outs stand apart in the source and are kept apart here.

On to `Cc1sc2c(c1C)C(c1ccc(N3CCN(C4CCN(CCOc5ccc([C@@H]6c7ccc(O)cc7CC[C@@H]6c6ccccc6)cc5)C4)CC3)cc1)=NC(Cc1ncco1)c1nnc(C)n1-2` (stereo partly drawn) [III-50], for which the GI50 in experiment [1] (setting [4]) is 50 to 500 nM; in experiment [2] (setting [5]), < 50 nM; in experiment [3], < 50 nM.

For `Cc1sc2c(c1C)C(c1ccc(OCCOCCOCCCN3CC(Nc4ccc([C@@H]5c6ccc7n[nH]cc7c6C[C@@H](C)N5CC(F)(F)F)nc4)C3)cc1)=N[C@@H](C)c1nnc(C)n1-2` [I-33, 6-((6S,8R)-8-methyl-7-(2,2,2-trifluoroethyl)-6,7,8,9-tetrahydro-2H-pyrazolo[4,3-f]isoquinolin-6-yl)-N-(1-(3-(2-(2-(4-((S)-2,3,6,9-tetramethyl-6H-thieno[3,2-f][1,2,4]triazolo[4,3-a][1,4]diazepin-4-yl)phenoxy)ethoxy)ethoxy)propyl)azetidin-3-yl)pyridin-3-amine], the GI50 in experiment [1] (setting [6]) is > 2500 nM; in experiment [2] (setting [7]) it was < 50 nM; in experiment [3], < 50 nM.

`Cc1sc2c(c1C)C(c1ccc(N3CC(C(=O)N4CCC(CC5CN(c6ccc([C@@H]7c8ccc(O)cc8CC[C@@H]7c7ccccc7)cc6)C5)CC4)C3)cc1)=N[C@@H](C)c1nnc(C)n1-2` [III-134]: the GI50 in experiment [1] (setting [4]) is 50 to 500 nM; in experiment [2] (setting [5]), < 50 nM; in experiment [3], < 50 nM.

`Cc1sc2c(c1C)C(c1ccc(N3CCC(O)(CN4CCN(c5cc(F)c([C@H]6c7ccc(O)cc7CC[C@H]6c6ccccc6)cc5F)CC4)CC3)cc1F)=N[C@@H](C)c1nnc(C)n1-2` [III-303]: the GI50 in experiment [1] (setting [4]), in experiment [2] (setting [5]) and in experiment [3] was 50 to 500 nM throughout.

For `Cc1sc2c(c1C)C(c1ccc(N3CCC(O)(CN4CCN(c5ccc(C6=C(c7ccc(Cl)cc7Cl)CCCc7cc(C(=O)O)ccc76)cc5)CC4)CC3)cc1)=N[C@@H](Cc1ncco1)c1nnc(C)n1-2` [IV-31], the GI50 is 50 to 500 nM in experiment [1] (setting [4]), < 50 nM in experiment [2] (setting [5]) and < 50 nM in experiment [3].

For the compound `Cc1sc2c(c1C)C(c1ccc(N[C@H]3CC[C@H](CNCCOc4ccc([C@@H]5c6ccc(O)cc6CC[C@@H]5c5ccccc5)cc4)CC3)cc1)=NC(Cc1ncco1)c1nnc(C)n1-2` (stereo partly drawn) [III-43], the GI50 in experiment [1] (setting [4]) was 50 to 500 nM; in experiment [2] (setting [5]) it was < 50 nM; in experiment [3] it was 50 to 500 nM.

In the case of `COc1cc(N2CCN(CC3(O)CCN(c4cc(F)c(C5=N[C@@H](C)c6nnc(C)n6-c6sc(C)c(C)c65)cc4F)CC3)CC2)ccc1[C@H]1c2ccc(O)cc2CC[C@H]1c1ccccc1` [III-340, 1-(2,5-difluoro-4-((S)-2,3,6,9-tetramethyl-6H-thieno[3,2-f][1,2,4]triazolo[4,3-a][1,4]diazepin-4-yl)phenyl)-4-((4-(4-((1R,2R)-6-hydroxy-2-phenyl-1,2,3,4-tetrahydronaphthalen-1-yl)-3-methoxyphenyl)piperazin-1-yl)methyl)piperidin-4-ol], the GI50 in experiment [1] (setting [4]), in experiment [2] (setting [5]) and in experiment [3] was 50 to 500 nM throughout.

Consider `Cn1cc(-c2cc(C(C)(C)O)ccc2Oc2ccc(CC3CC4(CCN(CCOc5ccc(C(=O)c6c(-c7ccc(O)cc7)sc7cc(O)ccc67)cc5)CC4)C3)cc2)c2cc[nH]c2c1=O` [I-24, 4-(2-(4-((7-(2-(4-(6-hydroxy-2-(4-hydroxyphenyl)benzo[b]thiophene-3-carbonyl)phenoxy)ethyl)-7-azaspiro[3.5]nonan-2-yl)methyl)phenoxy) -5-(2-hydroxypropan-2-yl)phenyl)-6-methyl-1,6-dihydro-7H-pyrrolo[2,3-c]pyridin-7-one], for which the figures for the GI50 in experiment [1] (setting [6]), in experiment [2] (setting [7]) and in experiment [3] were 50 to 500 nM, 50 to 500 nM and < 50 nM, respectively.

As for `Cc1sc2c(c1C)C(c1ccc(N3CCC(F)(CN4CCC(c5ccc([C@@H]6c7ccc(O)cc7CC[C@@H]6c6ccccc6)cc5)CC4)CC3)cc1)=N[C@@H](C)c1nnc(C)n1-2` [III-144], the results for the GI50 in experiment [1] (setting [4]), in experiment [2] (setting [5]) and in experiment [3] were > 2500 nM, 50 to 500 nM and 500 to 2500 nM, respectively.

With `Cc1sc2c(c1C)C(c1ccc(N3CCC(O)(CN4CCN(c5ccc([C@@H]6c7ccc(O)cc7CC[C@@H]6c6cc(F)ccc6F)c(F)c5)CC4)CC3)cc1)=N[C@@H](C)c1nnc(C)n1-2` [III-274], the GI50 in experiment [1] (setting [4]) is 500 to 2500 nM; in experiment [2] (setting [5]) it was < 50 nM; in experiment [3], < 50 nM.

Consider `Cc1cc(N2CCN(CC3(O)CCN(c4ccc(C5=N[C@@H](C)c6nnc(C)n6-c6sc(C)c(C)c65)cc4)CC3)CC2)ccc1[C@H]1c2ccc(O)cc2CC[C@H]1c1ccc(F)cc1` [III-297], for which the GI50 in experiment [1] (setting [4]), in experiment [2] (setting [5]) and in experiment [3] was 50 to 500 nM each time.

For the compound `Cc1sc2c(c1C)C(c1ccc(NCCN3CCN(CCOc4ccc([C@@H]5c6ccc(O)cc6CC[C@@H]5c5ccccc5)cc4)CC3)cc1)=NC(Cc1ncco1)c1nnc(C)n1-2` (stereo partly drawn) [III-29], the values for the GI50 in experiment [1] (setting [4]), in experiment [2] (setting [5]) and in experiment [3] were 50 to 500 nM, < 50 nM and 50 to 500 nM, respectively.

Regarding `Cn1cc(-c2cc(C(C)(C)O)ccc2Oc2ccc(N3CC(CC4CCN(CCOc5ccc(C(=O)c6c(-c7ccc(O)cc7)sc7cc(O)ccc67)cc5)CC4)C3)cc2)c2cc[nH]c2c1=O` [I-11, 4-(2-(4-(3-((1-(2-(4-(6-hydroxy-2-(4-hydroxyphenyl)benzo[b]thiophene-3-carbonyl)phenoxy)ethyl)piperidin-4-yl)methyl)azetidin-1-yl)phenoxy)-5-(2-hydroxypropan-2-yl)phenyl)-6-methyl-1,6-dihydro-7H-pyrrolo[2,3-c]pyridin-7-one], the GI50 in experiment [1] (setting [6]), in experiment [2] (setting [7]) and in experiment [3] was < 50 nM in each case.

Turning to `Cc1sc2c(c1C)C(c1ccc(N3CCN(CC4CCN(c5ccc([C@@H]6c7ccc(O)cc7CC[C@@H]6c6ccccc6)cc5)CC4)CC3)cc1)=N[C@H](Cn1cccn1)c1nnc(C)n1-2` [III-216], the figures for the GI50 in experiment [1] (setting [4]), in experiment [2] (setting [5]) and in experiment [3] were > 2500 nM, > 2500 nM and 50 to 500 nM, respectively.

Turning to `Cc1sc2c(c1C)C(c1ccc(N3CCC4(CCN(CC5CCN(c6ccc([C@@H]7c8ccc(O)cc8CC[C@@H]7c7ccccc7)cc6)CC5)CC4)C3)cc1)=N[C@@H](Cc1ncco1)c1nnc(C)n1-2` [III-202], the GI50 in experiment [1] (setting [4]) is 50 to 500 nM; in experiment [2] (setting [5]), < 50 nM; in experiment [3], < 50 nM.

For the compound `Cc1sc2c(c1C)C(c1ccc(N3CCC(O)(CN4CCN(c5ccc([C@H]6c7ccc(O)cc7CC[C@H]6c6ccc(F)cc6)c(Cl)c5)CC4)CC3)cc1)=N[C@@H](C)c1nnc(C)n1-2` [III-306], the GI50 in experiment [1] (setting [4]) was 500 to 2500 nM; in experiment [2] (setting [5]) it was 50 to 500 nM; in experiment [3] it was 50 to 500 nM.

For the compound `Cc1sc2c(c1C)C(c1ccc(N3CCC(CN4CCN(c5ccc(C6=C(c7ccccc7Cl)CCCc7cc(O)ccc76)cc5)CC4)CC3)cc1)=N[C@@H](C)c1nnc(C)n1-2` [IV-40], the values for the GI50 in experiment [1] (setting [4]), in experiment [2] (setting [5]) and in experiment [3] were > 2500 nM, < 50 nM and < 50 nM, respectively.

Regarding `Cc1sc2c(c1C)C(c1ccc(N3CCC(O)(CN4CCN(c5ccc(C6=C(c7cccc(Cl)c7Cl)CCCc7cc(C(=O)O)ccc76)cc5)CC4)CC3)cc1)=N[C@@H](C)c1nnc(C)n1-2` [IV-53], the GI50 in experiment [1] (setting [4]) was 500 to 2500 nM; in experiment [2] (setting [5]) it was < 50 nM; in experiment [3] it was < 50 nM.

For the compound `Cc1sc2c(c1C)C(c1ccc(OCCOCCOCCOc3cc(F)c([C@@H]4c5[nH]c6ccccc6c5C[C@@H](C)N4CC(C)(C)F)c(F)c3)cc1)=N[C@@H](C)c1nnc(C)n1-2` [I-25, (S)-4-(4-(2-(2-(2-(3,5-difluoro-4-((1R,3R)-2-(2-fluoro-2-methylpropyl)-3-methyl-2,3,4,9-tetrahydro-1H-pyrido[3,4-b]indol-1-yl)phenoxy)ethoxy)ethoxy)ethoxy)phenyl)-2,3,6,9-tetramethyl-6H-thieno[3,2-f][1,2,4]triazolo[4,3-a][1,4]diazepine], the GI50 in experiment [1] (setting [6]) is 50 to 500 nM; in experiment [2] (setting [7]), 50 to 500 nM; in experiment [3], < 50 nM.

For the compound `Cc1sc2c(c1C)C(c1ccc(N3CC(CN4CC(CC5CN(c6ccc([C@@H]7c8ccc(O)cc8CC[C@@H]7c7ccccc7)cc6)C5)C4)C3)cc1)=N[C@@H](C)c1nnc(C)n1-2` [III-220], the figures for the GI50 in experiment [1] (setting [4]), in experiment [2] (setting [5]) and in experiment [3] were 50 to 500 nM, < 50 nM and 50 to 500 nM, respectively.

For the compound `COc1cc(N2CCN(CC3(O)CCN(c4ccc(C5=N[C@@H](C)c6nnc(C)n6-c6sc(C)c(C)c65)cc4)CC3)CC2)ccc1[C@@H]1c2ccc(O)cc2CC[C@@H]1c1cccc(F)c1` [III-310], the GI50 is 500 to 2500 nM in experiment [1] (setting [4]), < 50 nM in experiment [2] (setting [5]) and < 50 nM in experiment [3].

Take `Cc1sc2c(c1C)C(c1ccc(N3CCN(CC4CCN(c5ccc([C@@H]6c7ccc(O)cc7CC[C@@H]6c6ccccc6)cc5)CC4)CC3)cc1)=N[C@@H](CC(=O)O)c1nnc(C)n1-2` [III-81]: the GI50 in experiment [1] (setting [4]) was > 2500 nM; in experiment [2] (setting [5]), 50 to 500 nM; in experiment [3], 50 to 500 nM.

As to `Cc1sc2c(c1C)C(c1ccc(N3CC(CN4CC(CN5CC(c6ccc(C7=C(c8ccccc8)CCCc8cc(C(=O)O)ccc87)cc6)C5)C4)C3)cc1)=N[C@@H](C)c1nnc(C)n1-2` [IV-22], the GI50 was 50 to 500 nM in experiment [1] (setting [4]), < 50 nM in experiment [2] (setting [5]) and < 50 nM in experiment [3].
